According to patent US11278549B2, “Method of treating obesity” (McMaster University, priority 2013, dated 2022):

How the values were obtained:
[1] = test system: BAT cells; assay: Serotonin on isoproterenol-stimulated cAMP and thermogenic program in BAT cells; format: cell-based, mouse; conditions: serotonin prior to isoproterenol
Method: To examine whether serotonin could alter cAMP and the induction of the thermogenic program in a cell autonomous manner, BAT cells were treated with the concentrations of serotonin observed in the BAT of Tph1^+/+ mice fed a HFD (FIG. 9b) prior to stimulation with isoproterenol ([…]). Serotonin treatment attenuated isoproterenol-stimulated cAMP and phosphorylation of protein kinase A substrates such as hormone sensitive lipase (HSL […]-FIG. 9c) and importantly also blunted the induction of the thermogenic gene program (FIG. 9d-f). […] Cell Culture. An immortalized brown adipocyte (BA) cell line derived from mouse fetal brown fat (as described in Uldry et al., Cell metabolism, 3 (2006) 333-341) was cultured and differentiated as previously described in Mottillo, Journal of Biological Chemistry, 287 (2012) 25038-25048. Briefly, confluent cells were placed in induction media (0.5 mM IBMX; 0.25 mM indomethacin; 2 μg/ml dexamethasone; 1 nM T3, 20 nM insulin) for two days and subsequently maintained on differentiation media (1 nM T3, 20 nM insulin). All experiments were performed on cultures 6-8 days post-induction. Unless otherwise indicated, cells were rinsed with PBS and media was changed to HEPES-buffered Krebs Ringer buffer (HKRB)+1% BSA. Where indicated, BAs were treated with serotonin for 30 min (100 μM; Sigma) followed by isoproterenol (1 nM, Sigma) for 4 h. […] cAMP measurements. cAMP levels were measured in BA stimulated for 10 min with isoproterenol (1 nM). […] The cAMP levels were quantified by ELISA (Biomedical Technologies Inc.) as previously described (Mottillo et al., American Journal of Physiology-Endocrinology And Metabolism, 301 (2011) […]-[…]). […] The expression pattern of various genes was quantified by qRT-PCR analysis, as previously described (Mottillo et al., American journal of physiology, 293 (2007) […]-1197). […] 25 ng of cDNA was analyzed in a 10 μl quantitative PCR reaction (Amplitaq Gold) as previously described. […] The extracts were recovered and proteins were quantified by using the bicinchoninic acid method (Pierce). […]

[2] = test system: 5-HT receptor; assay: Isoproterenol-induced lipolysis (FFA release) in immortalized BAT cells; format: cell-based, mouse; conditions: 5-HT at 100 μM, n=2
Method: Briefly, confluent cells were placed in induction media (0.5 mM IBMX; 0.25 mM indomethacin; 2 μg/ml dexamethasone; 1 nM T3, 20 nM insulin) for two days and subsequently maintained on differentiation media (1 nM T3, 20 nM insulin). All experiments were performed on cultures 6-8 days post-induction. Unless otherwise indicated, cells were rinsed with PBS and media was changed to HEPES-buffered Krebs Ringer buffer (HKRB)+1% BSA. Where indicated, BAs were treated with serotonin for 30 min (100 μM; Sigma) followed by isoproterenol (1 nM, Sigma) for 4 h. The serotonin receptor antagonist, methysergide (3 μM) was used 45 min prior treatment with serotonin as above.

[3] = target: T1, 5-HT2A (Mus musculus, UniProt P35363); assay: Fluo-4 Ca2+ signals in brown adipocytes; format: cell-based
T1 construct: endogenous in cells; host or cells: immortalized murine brown adipocytes (differentiated)
Description: Immortalized BA progenitor cells obtained from 5-HT2A KO (B6; 129-5-HT2Atm1a/Nju from Nanjing Biomedical Research Institute of Nanjing University) mice were differentiated for 9 days to produce mature BAs. Cells were then stained with fluo-4 and treated with different concentrations of 5-HT to obtain a dose response curve. Values from BAs expressing 5-HT2A used for other experiments were plotted as a WT comparison.

[4] = test system: UCP1; assay: Ucp1 promoter activity, Ucp1 mRNA and UCP1 protein in brown adipocytes; format: cell-based, mouse
Method: Using RNA-Seq, cultured human brown and beige adipocytes were interrogated for 5-HT receptor mRNA expression. Immortalized murine brown adipocytes (BAs) were treated with or without the selective 5-HT reuptake inhibitor (SSRI), paroxetine (250 nM). Subsequent studies were conducted with and without 5-HT2A agonists (1 pM-10 uM TCB-2, 1 pM-10 uM AL-34662, and 1 pM-10 uM NBOH-2C-CN) and 5-HT2A antagonists (100 fM-100 pM MDL-100907, 100 pM-10 uM xylamidine tosylate, 1 nM ketanserin, 10 nM altanserin, 100 fM-100 pM EMD-281,014, and 100 pM-10 uM sarpogrelate hydrochloride).
BA progenitors were isolated and immortalized from WT and serotonin transporter (SERT; Gene: Slc6a4) KO mice. These cells were then differentiated for 7 days to obtain mature BAs. BAs were then treated with different doses of 5-HT for 4 hours. RNA was isolated and quantified using RT-qPCR with probes specific for Slc6a4, Ucp1 and PPIA.
BA progenitors were isolated from mice expressing a transgene where the luciferase gene is driven by the Ucp1 promoter (i.e. Ucp1-Luc2 mice; a.k.a. ThermoMouse; Jackson Laboratories). Upon 9 days of differentiation, these BAs were treated for 4 hours with different doses of 5-HT. Because in vitro there is not a continuous supply of 5-HT as there is in vivo, cells were treated with paroxetine to inhibit the uptake and consequent degradation of 5-HT, and to observe 5-HT receptor specific effects. These cells were then lysed, incubated with a luciferin assay cocktail, and the light generated quantified on a microplate reader.

[5] = test system: brown adipose tissue; assay: Acute 5-HT with or without xylamidine pretreatment: BAT activity in vivo; parameters: species or system mice
Method: Mice housed at 30° C. were injected with xylamidine (3 mg/kg, −2 hour), 5-HT (5 mg/kg, −1 hour) and/or CL-316,243 (1 mg/kg, −20 min). […] Interscapular surface temperature under saline (C) and CL-316,243 (D) conditions were quantified. n=6. † indicates interaction effect via 2-way ANOVA. * indicates significant difference from saline via bonferonni post-hoc test. In all graphs, bars represent mean and error bars represent S.E.M;
(§1) To investigate effects in vivo, 5-HT (5 mg/kg i.p.) was acutely administered to mice with or without a peripherally-restricted 5-HT2A antagonist (xylamidine tosylate) (3 mg/kg i.p.) to assess BAT function. Chow fed female FVBNJ mice (Jackson laboratories) were fasted for 6 hours. Each mouse was intraperitoneal injected with Vehicle (0.9% NaCl) or Xylamidine (3 mg/kg in 0.9% NaCl) at −100 minutes, followed by Vehicle or 5-HT (5 mg/kg in 0.9% NaCl) at −40 minutes, and finally Glucose ([…]) at 0 minutes. Blood glucose was monitored at the indicated times (FIG. 22). Chow mice were administered xylamidine tosylate (3 mg/kg daily) via intraperitoneal injection for ˜5 weeks. Mice were then moved to anaesthetized and injected with either saline or CL-316,243. Oxygen consumption was recorded while at 30° C. Finally, xylamidine tosylate (3 mg/kg i.p. daily) was administered to mice on a HFD and indices of whole body metabolism, such as resting energy expenditure, glucose tolerance and NAFLD, were evaluated. The mRNA and protein expression of markers of beige adipose tissue (UCP1, PRDM16, NDUFB8, SDHB, MTCO1, UQCRC2 and ATP5A) were also evaluated.

[6] = test system: Chow fed female FVBNJ mice; assay: Acute xylamidine, 5-HT and glucose injection: glucose tolerance; format: in vivo; conditions: acute administration 3 mg/kg i.p.; effect larger when pre-treated with 5-HT
Method: as §1

[7] = test system: Chow mice; assay: Repeated xylamidine tosylate in chow mice: BAT energy expenditure with saline or CL-316,243; format: in vivo
Method: as §1

[8] = test system: mice on a HFD; assay: Chronic xylamidine tosylate in mice on a HFD; format: in vivo
Method: (B) graphically depicts the fat content of mice from (A). […] Bars/points represent mean and error bars indicate S.E.M;
as §1

[9] = chronic administration, high fat diet

T1 sequence (P35363 whole entry): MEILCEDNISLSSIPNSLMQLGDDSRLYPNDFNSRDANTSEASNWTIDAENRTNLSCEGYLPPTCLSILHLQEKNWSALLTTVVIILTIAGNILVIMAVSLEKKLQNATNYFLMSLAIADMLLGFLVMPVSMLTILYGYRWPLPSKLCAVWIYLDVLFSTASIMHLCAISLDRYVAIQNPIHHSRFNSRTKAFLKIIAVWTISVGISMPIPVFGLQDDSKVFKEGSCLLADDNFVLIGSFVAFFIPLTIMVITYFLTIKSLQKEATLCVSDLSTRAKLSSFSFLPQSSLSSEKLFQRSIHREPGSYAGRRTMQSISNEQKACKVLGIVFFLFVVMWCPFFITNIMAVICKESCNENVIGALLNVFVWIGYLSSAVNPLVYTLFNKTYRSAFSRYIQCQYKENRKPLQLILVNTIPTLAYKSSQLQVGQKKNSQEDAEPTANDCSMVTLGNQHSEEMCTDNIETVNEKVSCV

NCCc1c[nH]c2ccc(O)cc12 [5-HT, 5-hydroxytryptamine]
isoproterenol-stimulated cAMP [1]: attenuated
phosphorylation of protein kinase A substrates (HSL S660) [1]: attenuated
induction of the thermogenic gene program ([1]; Pgc1a, Pdk4, Ucp1): blunted
isoproterenol-induced increases in lipolysis [2]: blunts
Ca2+ levels ([3]; brown adipocytes stained with Fluo-4, agonist treatment): increased
Ucp1 mRNA ([4]; brown adipocytes): decreased
Ucp1 promoter activity ([4]; brown adipocytes): decreased
UCP1 protein levels ([4]; brown adipocytes, chronic treatment for NBOH-2C-CN): decreased
UCP1 protein content ([4]; cultured brown adipocytes, only in the presence of paroxetine (SSRI), 8 days): decreased
brown adipose tissue associated oxygen consumption and inter-scapular surface area temperature ([5]; BAT activated with CL-316,243, 5 mg/kg 5-HT): significantly attenuated
markers of brown adipose tissue activity (VO2, interscapular surface temperature) ([5]; thermoneutral conditions, BAT inactive (saline), 5 mg/kg 5-HT): no effect

COc1cccc(OC(C)CNC(=N)Cc2cccc(C)c2)c1.Cc1ccc(S(=O)(=O)O)cc1 (stereo not shown) [xylamidine tosylate]
5-HT induced Ca2+ transients ([3]; pre-treatment with antagonist): attenuated
effects of 5-HT on BAT activity ([5]; pre-treatment 3 mg/kg, CL-316,243 activated BAT): completely blocked
glucose tolerance [6]: improved
brown adipose tissue specific energy expenditure ([7]; chow mice, repeated administration 3 mg/kg daily ~5 weeks, CL-316,243): increased
energy expenditure when BAT is inactive ([7]; saline): no effect
oxygen consumption, heat production, and non-moving oxygen consumption ([8]; 3 mg/kg daily, high fat diet): increased
glucose tolerance ([8]; 3 mg/kg daily, high fat diet (45% of calories from fat)): improved
iWAT levels of UCP1 and mitochondrial proteins [8, 9]: increased
iWAT mRNA levels of Prdm16 [8, 9]: elevated
liver triglycerides levels [8, 9]: significantly reduced
weight gain and increases in fat mass [8, 9]: prevented
